Measured values: paper PMC7782793, “Hydroxamic acid-modified peptide microarrays for profiling isozyme-selective interactions and inhibition of histone deacetylases” (Nature Communications, 2021)
“And” between values parts separate entries of the source, which are not always exact repeats. Equal values may be shown once. Marks after values point to notes of the source that are not given here. Non-standard residues stand in square brackets, D forms with d. Residues, ends and D or L forms follow the SMILES beside them. *: point of attachment. Asu = N[C@@H](CCCCCC(=O)O)C(=O)O; NHOH = ON*

Key:
HDAC6 = target: T1, HDAC6 (Homo sapiens, UniProt Q9UBN7); assay: HDAC inhibition assay (fluorogenic, Ac-Leu-Gly-Lys(Ac)-AMC); type: biochemical; settings: HDAC6, replicates
T1 construct: HDAC6 (full length, BPS Bioscience, cat. #: 50056); purchased BPS Bioscience 50056
T1 sequence (Q9UBN7 1-1215): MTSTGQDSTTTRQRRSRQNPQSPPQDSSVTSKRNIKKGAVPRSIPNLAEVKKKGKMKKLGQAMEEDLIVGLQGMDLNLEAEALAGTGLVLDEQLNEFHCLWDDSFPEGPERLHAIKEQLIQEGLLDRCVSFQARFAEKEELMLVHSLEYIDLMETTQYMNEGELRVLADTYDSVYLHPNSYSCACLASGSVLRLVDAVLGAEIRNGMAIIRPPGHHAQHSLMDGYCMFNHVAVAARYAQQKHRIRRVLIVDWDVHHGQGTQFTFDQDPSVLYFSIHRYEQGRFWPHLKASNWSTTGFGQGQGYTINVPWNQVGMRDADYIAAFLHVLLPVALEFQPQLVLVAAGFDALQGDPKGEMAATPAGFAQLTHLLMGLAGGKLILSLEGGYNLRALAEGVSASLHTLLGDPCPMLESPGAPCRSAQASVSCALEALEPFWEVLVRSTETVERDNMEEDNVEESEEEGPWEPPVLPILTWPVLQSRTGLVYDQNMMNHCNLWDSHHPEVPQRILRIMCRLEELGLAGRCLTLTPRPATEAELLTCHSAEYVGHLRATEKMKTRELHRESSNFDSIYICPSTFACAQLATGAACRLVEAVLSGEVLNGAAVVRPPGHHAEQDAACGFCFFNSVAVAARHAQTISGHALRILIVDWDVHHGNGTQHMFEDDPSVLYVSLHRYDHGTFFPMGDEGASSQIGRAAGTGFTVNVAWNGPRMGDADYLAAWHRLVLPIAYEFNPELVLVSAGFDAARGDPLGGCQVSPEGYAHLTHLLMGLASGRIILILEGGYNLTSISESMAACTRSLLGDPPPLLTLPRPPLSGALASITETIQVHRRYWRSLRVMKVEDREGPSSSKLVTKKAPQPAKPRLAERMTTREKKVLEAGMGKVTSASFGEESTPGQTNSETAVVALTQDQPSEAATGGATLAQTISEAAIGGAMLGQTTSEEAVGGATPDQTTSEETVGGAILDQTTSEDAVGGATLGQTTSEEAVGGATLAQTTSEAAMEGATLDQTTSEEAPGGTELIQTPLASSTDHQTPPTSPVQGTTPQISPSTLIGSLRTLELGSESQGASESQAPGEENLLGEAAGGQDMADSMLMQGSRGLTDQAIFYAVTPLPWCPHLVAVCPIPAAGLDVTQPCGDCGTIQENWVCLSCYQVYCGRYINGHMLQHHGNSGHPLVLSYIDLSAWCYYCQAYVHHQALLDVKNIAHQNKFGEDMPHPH

HDAC3/NCoR2 = target: T2, HDAC3/NCoR2 (Homo sapiens, UniProt O15379); assay: Recombinant HDAC µSPOT microarray binding assay;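 note: peptide spots on cellulose slides incubated with rising HDAC enzyme concentrations, imaged together, four-parameter logistic fit, EC50 is enzyme concentration giving half-maximal binding signal, two experiments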
T2 construct: HDAC3/NCoR2 (full length, C-terminal His tag, NCoR2 N-terminal GST tag); purchased BPS Bioscience 50003

HDAC2 = target: T3, HDAC2 (Homo sapiens, UniProt Q92769); assay: HDAC inhibition assay (fluorogenic, Ac-Leu-Gly-Lys(Ac)-AMC); type: biochemical; settings: for HDAC2 dose-response data (relative enzyme activity), Fig. 6 + S. Fig. 10: duplicate columns
T3 construct: HDAC2 (full length, C-terminal His tag, BPS Bioscience, cat. #: 50002); purchased BPS Bioscience 50002

HDAC8 [1] = target: T4, HDAC8 (Homo sapiens, UniProt Q9BY41); assay: Recombinant HDAC µSPOT microarray binding assay;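 note: peptide µSPOT slides incubated with varying HDAC enzyme concentrations, imaged signal intensity fitted by four-parameter variable-slope regression, EC50 is enzyme concentration giving half-maximal binding, pH 7.4 HEPES buffer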
T4 construct: HDAC8 (full length, C-terminal His tag, BPS Bioscience, cat. #: 50008); purchased BPS Bioscience 50008
T4 sequence (Q9BY41 1-377): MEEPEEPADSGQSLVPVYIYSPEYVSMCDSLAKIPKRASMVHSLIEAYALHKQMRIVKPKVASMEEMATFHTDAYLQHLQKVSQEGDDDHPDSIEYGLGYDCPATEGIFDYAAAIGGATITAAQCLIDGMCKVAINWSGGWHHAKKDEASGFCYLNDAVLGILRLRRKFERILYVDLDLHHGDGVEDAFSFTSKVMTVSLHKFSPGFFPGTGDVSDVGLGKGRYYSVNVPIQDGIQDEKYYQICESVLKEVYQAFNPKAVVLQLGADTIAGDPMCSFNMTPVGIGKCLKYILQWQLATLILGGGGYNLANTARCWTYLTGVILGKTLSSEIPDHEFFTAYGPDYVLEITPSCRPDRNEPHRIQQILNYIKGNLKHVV
Procedure: Experiments were performed twice, data were obtained with Array Analyze software (Active Motif), and data analysis and representation were performed with the GraphPad Prism 7 software. Outliers were curated manually and data were fitted to nonlinear regression [log(agonist) vs. response—variable slope (four parameters)]. […] Non-sigmoidal curves were denoted as not determined (N.D.) The pEC50 values were determined as the concentration of HDAC enzyme required for half-maximal binding signal.

HDAC8 [2] = target: T4, HDAC8; assay: HDAC inhibition assay (fluorogenic, Ac-Leu-Gly-Lys(Tfa)-AMC); type: biochemical; settings: for HDAC8 dose-response data (relative enzyme activity, replicate values), Fig. 6 + S. Fig. 10: two replicate columns per inhibitor; for HDAC8 dose-response data (relative enzyme activity), Fig. 6 + S. Fig. 10: duplicate columns

T3 sequence (Q92769 whole entry): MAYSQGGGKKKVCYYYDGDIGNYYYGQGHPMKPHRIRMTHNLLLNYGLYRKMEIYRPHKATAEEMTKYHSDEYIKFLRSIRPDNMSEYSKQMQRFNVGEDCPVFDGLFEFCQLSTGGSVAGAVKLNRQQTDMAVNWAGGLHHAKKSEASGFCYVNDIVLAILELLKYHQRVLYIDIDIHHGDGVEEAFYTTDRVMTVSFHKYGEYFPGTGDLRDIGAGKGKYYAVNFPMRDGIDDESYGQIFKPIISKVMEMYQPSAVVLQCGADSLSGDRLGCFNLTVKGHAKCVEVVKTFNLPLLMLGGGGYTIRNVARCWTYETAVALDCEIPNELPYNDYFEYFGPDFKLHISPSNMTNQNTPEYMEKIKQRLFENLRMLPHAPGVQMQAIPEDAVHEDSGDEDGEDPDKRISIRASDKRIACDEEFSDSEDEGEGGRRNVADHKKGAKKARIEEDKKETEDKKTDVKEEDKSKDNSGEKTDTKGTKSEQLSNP
T2 sequence (O15379 whole entry): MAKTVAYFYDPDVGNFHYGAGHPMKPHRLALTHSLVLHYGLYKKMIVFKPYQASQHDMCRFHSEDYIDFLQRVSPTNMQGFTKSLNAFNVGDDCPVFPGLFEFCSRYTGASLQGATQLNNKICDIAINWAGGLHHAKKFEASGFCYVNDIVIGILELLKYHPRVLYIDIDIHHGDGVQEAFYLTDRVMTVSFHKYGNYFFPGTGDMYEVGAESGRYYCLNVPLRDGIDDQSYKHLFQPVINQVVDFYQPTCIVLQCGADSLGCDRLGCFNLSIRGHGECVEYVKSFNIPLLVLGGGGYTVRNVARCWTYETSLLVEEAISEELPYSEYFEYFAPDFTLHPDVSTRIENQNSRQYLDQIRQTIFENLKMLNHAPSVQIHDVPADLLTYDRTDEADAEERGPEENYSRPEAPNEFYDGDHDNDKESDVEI
T2 sequence (Q9Y618 389-480 partner limits assumed): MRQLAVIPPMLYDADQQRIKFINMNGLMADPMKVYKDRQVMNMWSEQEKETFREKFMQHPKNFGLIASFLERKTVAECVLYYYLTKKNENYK

CC[C@H](C)[C@H](NC(=O)[C@H](CCC(=O)O)NC(=O)[C@H](CCCNC(=N)N)NC(=O)[C@H](CO)NC(=O)[C@@H](NC(=O)[C@@H](NC(=O)[C@@H](NC(=O)[C@H](CO)NC(=O)[C@H](CCCNC(=N)N)NC(=O)[C@H](CCCCCC(=O)NO)NC(=O)[C@H](CC(N)=O)NC(=O)[C@H](Cc1ccc(O)cc1)NC(=O)[C@H](Cc1c[nH]cn1)NC(C)=O)[C@@H](C)O)[C@@H](C)CC)[C@@H](C)O)C(=O)N[C@@H](CCC(N)=O)C(=O)N[C@H](C(=O)N[C@@H](C)C(=O)N[C@@H](Cc1c[nH]c2ccccc12)C(N)=O)[C@@H](C)O [12a] (Ac-HYN[Asu](NHOH)RSTITSREIQTAW-NH2)
residual enzymatic activity relative to control wells (HDAC6; log[inhibitor(M)] -5): 2.004 and 3.233 | residual enzymatic activity relative to control wells (HDAC6; log[inhibitor(M)] -5.69897): 5.047 and 6.177 | residual enzymatic activity relative to control wells (HDAC6; log[inhibitor(M)] -6.39794): 15.6412 and 12.824 | residual enzymatic activity relative to control wells (HDAC6; log[inhibitor(M)] -7.09691): 40.6476 and 34.5345 | residual enzymatic activity relative to control wells (HDAC6; log[inhibitor(M)] -7.79588): 71.7467 and 73.0064 | residual enzymatic activity relative to control wells (HDAC6; log[inhibitor(M)] -8.49485): 80.6815 and 89.6415 | residual enzymatic activity relative to control wells (HDAC6; log[inhibitor(M)] -9.19382): 82.3274 and 88.4313 | residual enzymatic activity relative to control wells (HDAC6; log[inhibitor(M)] -9.89279): 83.6621 and 89.4789 | residual enzymatic activity relative to control wells (HDAC6; log[inhibitor(M)] -10.585): 102.86 and 101.255 | EC50 (HDAC3/NCoR2): 2.57 nM | HDAC2 dose-response data (relative enzyme activity), Fig. 6 + S. Fig. 10 (HDAC2; log[inhibitor(M)] -5): 3.067 and 2.914 | HDAC2 dose-response data (relative enzyme activity), Fig. 6 + S. Fig. 10 (HDAC2; log[inhibitor(M)] -5.69897): 11.3787 and 10.2695 | HDAC2 dose-response data (relative enzyme activity), Fig. 6 + S. Fig. 10 (HDAC2; log[inhibitor(M)] -7.79588): 90.7701 and 92.8679 | HDAC2 dose-response data (relative enzyme activity), Fig. 6 + S. Fig. 10 (HDAC2; log[inhibitor(M)] -10,5850266520292*, whole line marked with asterisks): 102,18881* and 100,790249* | Ki (HDAC2; resynthesized peptide in solution, Cheng-Prusoff, n = 2): 23.8 ± 0.1 nM | EC50 (HDAC8 [1]): > 25.1 nM | Ki (HDAC8 [2]): 672 ± 2 nM | HDAC8 dose-response data (relative enzyme activity, replicate values), Fig. 6 + S. Fig. 10 (HDAC8 [2]; Inhibitor conc [M] -8.49485 (log)): 96.596 and 95.5531 | HDAC8 dose-response data (relative enzyme activity, replicate values), Fig. 6 + S. Fig. 10 (HDAC8 [2]; Inhibitor conc [M] -9.19382 (log)): 96.9206 and 97.7957 | HDAC8 dose-response data (relative enzyme activity, replicate values), Fig. 6 + S. Fig. 10 (HDAC8 [2]; Inhibitor conc [M] given as -7.09691 (log)): 89.149 and 90.0695 | HDAC8 dose-response data (relative enzyme activity, replicate values), Fig. 6 + S. Fig. 10 (HDAC8 [2]; Inhibitor conc [M] given as -7.79588 (log)): 96.5655 and 96.7922 | HDAC8 dose-response data (relative enzyme activity, replicate values), Fig. 6 + S. Fig. 10 (HDAC8 [2]; Inhibitor conc [M] given as -9.89279 (log)): 97.4718 and 97.8478 | HDAC8 dose-response data (relative enzyme activity, replicate values), Fig. 6 + S. Fig. 10 (HDAC8 [2]; Inhibitor conc [M] given as -10.585 (log)): 100,321515* and 100,605272* | HDAC8 dose-response data (relative enzyme activity), Fig. 6 + S. Fig. 10 (HDAC8 [2]; Inhibitor conc [M] -4.30103): 4.131 and 3.99 | HDAC8 dose-response data (relative enzyme activity), Fig. 6 + S. Fig. 10 (HDAC8 [2]; Inhibitor conc [M] -5): 13.2204 and 13.7487 | HDAC8 dose-response data (relative enzyme activity), Fig. 6 + S. Fig. 10 (HDAC8 [2]; Inhibitor conc [M] -5.69897): 34.8849 and 37.2156 | HDAC8 dose-response data (relative enzyme activity), Fig. 6 + S. Fig. 10 (HDAC8 [2]; Inhibitor conc [M] -6.39794): 67.169 and 68.3219
